Here are results for 17 compounds from US5157039A, “2-quinolinyl methoxy compounds, medical uses and intermediates therefor” (Leo Pharmaceutical Products Ltd., priority 1985, dated 1992).

Read-outs that look alike come from different tables or passages of the source.

One experiment relates to cyclooxygenase. Nature of the experiment: Synthesis of cyclooxygenase products in A 23187-stimulated rat peritoneal cells (same assay). In kind it is cell-based. As to conditions: final concentrations from 10^-6 M and above. The procedure: (§1) The biological activity of the present compounds was determined both in vitro and in vivo. The following method was used to assay 5-lipoxygenase activity in vitro: Rat peritoneal cells were harvested by i.p. injection of 10 ml Hank's balanced salt solution (GIBCO), cat. No. 4025, U.S.A.) containing 12.5 U/ml sodium heparin (Leo, Denmark) in anaesthesized rats. The resulting cell suspension, which mainly contained macrophages, was transferred to a test tube and washed twice by centrifugation (200 g, 10 min.) and resuspended in Hank's balanced salt solution containing 0.5% bovine serum albumin (Sigma Chem. Co., U.S.A.). The cells from 6 rats were finally resuspended in Hank's balanced salt solution containing 5 μCi (1-^14 C) arachidonic acid (The Radiochemical Centre, Amersham, U.K.) and incubated for 90 minutes at 30° C. This caused labelling of cell membrane phospholipids as radioactive arachidonic acid was incorporated in the 2-position of the glycerol moiety. Excess arachidonic acid was then removed by washing the cells twice as described above. The cells were finally resuspended in the same solution at 10^7 cells/ml. 475 μl of the cell suspension was preincubated at 37° C. for 5 minutes with either 5 μl DMSO (control tube), or 5 μl of a drug solution in DMSO. Then 20 μl of a mixture of equal volumes of the calcium ionophore A 23187, 10^-4 M in ethanol (Calbiochem, U.S.A.), and 0.5M CaCl2 in water was added. The final concentration of A 23187 was thus 2×10^-6 M, transferred to an ice-bath and centrifugated for 10 minutes at 3,000 g (4° C.). An aliquot of the supernatant was counted by liquid scintillation spectrometry in order to calculate the total radioactive release induced by A 23187 in presence of drugs. […] Radioactive spots were detected by autoradiography (AGFA-GEVAERT, Osray-RPI X-ray film, Belgium), and changes induced by drugs in the metabolic pattern of arachidonic acid were quantified by a laser densitometer (LKB, Ultroscan™ 2202, Bromma, Sweden) in combination with an integrating computer (SP 4100, SpectraPhysics, San Jose, Calif., U.S.A.). […]

Another experiment relates to 5-lipoxygenase. Nature of the experiment: 5-lipoxygenase activity in vitro in A 23187-stimulated rat peritoneal cells (radiolabelled arachidonic acid metabolites). As to conditions: final concentrations from 10^-6 M and above. Type of experiment: cell-based. The procedure:
as §1, with “This caused labelling of cell membrane phospholipids as radioactive arachidonic acid was incorporated in the 2-position of the glycerol moiety. Excess arachidonic acid was then removed by washing the cells twice as described above. The cells were finally resuspended in the same solution at 10^7 cells/ml. 475 μl of the cell suspension was preincubated at 37° C. for 5 minutes with either 5 μl DMSO (control tube), or 5 μl of a drug solution in DMSO. Then 20 μl of a mixture of equal volumes of the calcium ionophore A 23187, 10^-4 M in ethanol (Calbiochem, U.S.A.), and 0.5M CaCl2 in water was added. The final concentration of A 23187 was thus 2×10^-6 M, transferred to an ice-bath and centrifugated for 10 minutes at 3,000 g (4° C.).” left out

In the next experiment the test system is release of leukotrienes. Nature of the experiment: A 23187-induced leukotriene release in the peritoneal cavity of rats in vivo. The settings on record: administered prior to intraperitoneal A 23187. Set-up: species or system rat. The procedure: Two in vivo methods were used to assess the effect of either oral or parenteral administration of the compounds to experimental animals on the release of leukotrienes. In the first method, calcium ionophore A 23187 was injected into the peritoneal cavity of adrenalectomized and anaestesized rats. 5 minutes later the cavity was washed, and the leukotrienes were extracted with ethanol and redissolved in water or buffer. The amount of leukotriene D4 released in response to A 23187 was determined by bioassay, using the contraction of an isolated guinea-pig ileum-strip as indicator. Leukotriene C4 and B4 were measured by commercially available radioimmunoassays (New England Nuclear, Dreieich, West Germany, and The Radiochemical Centre, Amersham, U. K., respectively).

The subject of experiment [1] is asthmatic reaction (airway resistance) in guinea-pigs. Nature of the experiment: Asthmatic reaction in ovalbumin-hypersensitive guinea-pigs (Konzett-Rossler). In kind it is in vivo, guinea-pig. As to conditions: ovalbumin i.v. challenge; mepyramine, indomethacin and propranolol pretreated. An excerpt: The other method was used to measure a physiological consequence of leukotriene release in the lungs, an asthmatic attack. Guinea-pigs hypersensitive to ovalbumin were anaestesized and mechanically ventilated with a constant airvolumen ad modum Konzett-Rossler. The animals were pretreated with mepyramine, indomethacin and propranolol to avoid interference with endogenous production of histamine, prostaglandins and β-adrenergic mechanisms, respectively. They were then challenged with an intravenous injection of ovalbumin, and the increase in airway resistance was measured by the respiratory overflow.

Experiment [2] deals with leukotriene D4-induced contraction of guinea-pig ileum strips. Nature of the experiment: Leukotriene D4-induced contraction of isolated guinea-pig ileum strips (leukotriene antagonism). As to conditions: leukotriene D4 10^-9 M; atropine and indomethacin present. The source says: Antagonism of leukotriene mediated effects at the receptor level, in addition to inhibition of leukotriene synthesis, is an additional mode of action of some of the present compounds. Obviously, this dual mechanism is of potentially great interest in preventing leukotriene mediated reactions.
Leukotriene antagonists may be identified by observing the contractions elicited in preparations of guinea-pig ileum strips suspended in physiological buffers by addition of pure leukotriene D4. The ileum strips are connected to an isotonic transducer, and the contractions are continuously recorded on a multichannel recorder.
Before addition of leukotriene D4, atropine and indomethacin are added to the buffer in order to block any cholinergic or prostaglandin-mediated contractile effects. Test compounds to be studied with respect to leukotriene antagonism are dissolved in dimethylsulphoxide (DMSO) and added to the organ bath 2 minutes prior to addition of leukotriene D4 at 10^-9 M (final concentration), the final concentration of DMSO being 0.1%, a concentration which can be shown not to affect the ileum response to leukotriene D4. The test compounds may be added at various concentrations, often beginning at 10^-6 M and then decreasing the concentration in case of antagonism.

A further experiment has as its system rat peritoneal mast cell. The experiment can be described thus: Rat peritoneal mast cell histamine release. In kind it is cell-based. An excerpt:
Products formed by the enzyme responsible for the first step in leukotriene synthesis, 5-lipoxygenase, which is probably the target enzyme of compounds of the present invention, play a role as mediators of mast cell degranulation. One of the effects of mast cell degranulation is the release of histamine. Thus, 5-lipoxygenase inhibitors may suppress histamine release from mast cells.
In order to investigate this possibility, cells obtained from washings of the peritoneal cavity of rats, were studied. These peritoneal washings contain mainly macrophages and mast cells. The mast cells were passively sensitized with IgE-antibodies to ovalbumin, and then challenged with the antigen, ovalbumin, to induce histamine release. Alternatively, the unsensitized mast cells were exposed to an […], compound 48/80*, which induces histamine release independently of immunologic mechanisms. Histamine released to the medium after degranulation of the peritoneal mast cells was measured by a fluorometric method.
* (the condensation product of N-methyl-p-methoxyphenethylamine with formaldehyde)

Experiment [3] has as its system IL-8 mRNA in peripheral blood mononuclear cells (PBMC). The experiment can be described thus: IL-8 mRNA synthesis in LPS-stimulated peripheral blood mononuclear cells (cDNA probe). Type of experiment: cell-based. As to conditions: submicromolar concentrations. The source says: (§2) These effects were obtained using submicromolar concentrations of the two compounds.
The test system of the next experiment is IL-1 mRNA in PBMC. Nature of the experiment: IL-1 mRNA production in LPS-stimulated PBMC. In kind it is cell-based.
Text: as §2

In experiment [4] the test system is IL-1 release from inflammatory cells. Nature of the experiment: IL-1 release from inflammatory cells. In kind it is cell-based.
Text: as §2

A further experiment relates to gene expression of IL-8. Nature of the experiment: Gene expression of IL-8 in endothelial cells, fibroblasts and keratinocytes stimulated by LPS or IL-1. Type of experiment: cell-based.
Text: as §2

Setting [5] is: antigen ovalbumin, passively sensitized mast cells, read-out: Inhibition (%) of histamine release induced by Antigen.
Where [6] appears, read: compound 48/80, unsensitized mast cells, read-out: Inhibition (%) of histamine release induced by Cp. 48/80.

As for `CNc1ccc(OCc2cccnc2)cc1` [OT 3447, 4-(3'-Pyridylmethoxy)-N-methylaniline], in the experiment with cyclooxygenase, the “synthesis of prostaglandin D2” value is “not affected”, the “synthesis of the cyclooxygenase product HHT” value is reported as “not affected” and the “synthesis of thromboxane B2” value is listed as “not affected”. Also, in the experiment with 5-lipoxygenase, the “production of 5-HETE” value was “significant and specific decrease”; the “production of leukotriene B4” value was “significant and specific decrease”. Moreover, in the experiment with release of leukotrienes, the “leukotriene B4 formation (radioimmunoassay)” value was “substantial inhibition”; the “leukotriene C4 formation (radioimmunoassay)” value is on record as “substantial inhibition”; the “leukotriene D4 formation (bioassay, guinea-pig ileum-strip)” value is listed as “substantial inhibition”. Besides, the asthmatic reaction result in experiment [1] is “significantly reduced”.

Regarding `CC(=O)Nc1cccc(OCc2ccc3ccccc3n2)c1` [11 (part A), 3-(2'-Quinolylmethoxy)acetanilide], the “concentration at which leukotriene D4-induced contraction is inhibited” value in experiment [2] is given as “submicromolar range”.

Regarding `Clc1cc(NCc2ccccc2)ccc1OCc1ccncc1` [Ex. 79, part C, 3-Chloro-4-(4'-pyridylmethoxy)-N-benzylaniline], the inhibition at 10 µM with rat peritoneal mast cell (setting [5]) came out at 100%; in the experiment with rat peritoneal mast cell (setting [6]) it was 95%.

On to `CN(C)c1cccc(OCc2ccc3ccccc3n2)c1` [Example 18, 3-(2'-Quinolylmethoxy)-N,N-dimethylaniline], for which, in experiment [2], the “concentration at which leukotriene D4-induced contraction is inhibited” value is “submicromolar range”.

As for `c1ccc(CNc2cccc(OCc3ccc4ccccc4n3)c2)cc1` [Example 39, 3-(2'-Quinolylmethoxy)-N-benzylaniline], the “concentration at which leukotriene D4-induced contraction is inhibited” value in experiment [2] is given as “submicromolar range”. Besides, the inhibition at 10 µM stood at 100% in the experiment with rat peritoneal mast cell (setting [5]) and 95% in the experiment on rat peritoneal mast cell (setting [6]).

With `CNc1ccc(OCc2ccc3ccccc3n2)cc1` [Ex. 10, part C, 4-(2'-Quinolylmethoxy)-N-methylaniline], the inhibition at 10 µM in the experiment with rat peritoneal mast cell (setting [5]) stood at 51%; with rat peritoneal mast cell (setting [6]), 19%.

`O=C(O)c1ccc(CN(Cc2cccc(F)c2)c2ccc(OCc3ccc4ccccc4n3)cc2)cc1` [ETH615, 4-(2'-quinolylmethoxy)-N-(3"-fluorobenzyl)-N-(4'"-carboxybenzyl)aniline]: the “synthesis of IL-8 messenger RNA” value in [3] is reported as “inhibit the synthesis of messenger RNA”. Also, in the experiment with IL-1 mRNA in PBMC, the “IL-1 mRNA production” value is recorded as “inhibits IL-1 mRNA production”. Besides, the IL-1 release entry in experiment [4] was “suppression of IL-1 release”. For the same compound, the “gene expression of IL-8 in endothelial cells” value in the experiment with gene expression of IL-8 (endothelial cells stimulated by LPS or IL-1) was “suppress the gene expression of IL-8”. For the same compound, the “gene expression of IL-8 in fibroblasts” value in the experiment with gene expression of IL-8 (fibroblasts stimulated by LPS or IL-1) was “suppress the gene expression of IL-8”. Moreover, the “gene expression of IL-8 in keratinocytes” value with gene expression of IL-8 (keratinocytes stimulated by LPS or IL-1) is “suppress the gene expression of IL-8”.

For `CCCN(CCC)c1ccc(OCc2ccc3ccccc3n2)cc1` [Ex. 77, 4-(2'-Quinolylmethoxy)-N,N-di-n-propylaniline], the inhibition at 10 µM in the experiment with rat peritoneal mast cell (setting [5]) stood at 100%; in the experiment with rat peritoneal mast cell (setting [6]), 92%.

On to `CNc1cccc(OCc2ccc3ccccc3n2)c1` [11 (part C), 3-(2'-Quinolylmethoxy)-N-methylaniline], for which the “concentration at which leukotriene D4-induced contraction is inhibited” value in experiment [2] is on record as “submicromolar range”.

Take `CCCNc1ccc(OCc2ccccn2)cc1` [Ex. 70]: the inhibition at 10 µM stood at 100% in the experiment on rat peritoneal mast cell (setting [5]) and 45% in the experiment on rat peritoneal mast cell (setting [6]).

Regarding `c1ccc(CNc2ccc(OCc3ccc4ccccc4n3)cc2)cc1` [Ex. 38, 4-(2'-Quinolylmethoxy)-N-benzylaniline], the inhibition at 10 µM in the experiment with rat peritoneal mast cell (setting [5]) came out at 91%; in the experiment on rat peritoneal mast cell (setting [6]), 85%.

In the case of `CCCCNc1cccc(OCc2ccc3ccccc3n2)c1` [Example 23, 3-(2'-Quinolylmethoxy)-N-n-butylaniline], in [2], the “concentration at which leukotriene D4-induced contraction is inhibited” value is “submicromolar range”.

As to `CCCCNc1ccc(OCc2ccc3ccccc3n2)cc1` [Example 22, 4-(2'-Quinolylmethoxy)-N-n-butylaniline], in experiment [2], the “concentration at which leukotriene D4-induced contraction is inhibited” value is on record as “submicromolar range”. The values for the inhibition at 10 µM in the experiment on rat peritoneal mast cell (setting [5]) and in the experiment with rat peritoneal mast cell (setting [6]) were 100% and 75%, respectively.

In the case of `O=C(O)c1cccc(CN(Cc2ccccc2)c2ccc(OCc3ccc4ccccc4n3)cc2)c1` [ETH647], in experiment [3], the “synthesis of IL-8 messenger RNA” value is reported as “inhibit the synthesis of messenger RNA”.

With `Clc1cc(OCc2ccncc2)ccc1NCc1ccccc1` [Ex. 78, part C, 2-Chloro-4-(4'-pyridylmethoxy)-N-benzylaniline], the “concentration at which leukotriene D4-induced contraction is inhibited” value in experiment [2] is on record as “submicromolar range”. The inhibition at 10 µM in the experiment on rat peritoneal mast cell (setting [5]) stood at 96%; in the experiment on rat peritoneal mast cell (setting [6]), 95%.

Take `c1ccc(CNc2cccc(OCc3ccccn3)c2)cc1` [Ex. 68, 3-(2'-Pyridylmethoxy)-N-benzylaniline]: the results for the inhibition at 10 µM in the experiment on rat peritoneal mast cell (setting [5]) and in the experiment on rat peritoneal mast cell (setting [6]) were 45% and 17%, respectively.

For the compound `NCCCCCCNc1ccc(OCc2ccc3ccccc3n2)cc1` [Ex. 66, 4-(2'-Quinolylmethoxy)-N-1"-(6"-amino-n-hexyl)aniline], the inhibition at 10 µM stood at 100% in the experiment on rat peritoneal mast cell (setting [5]) and 65% with rat peritoneal mast cell (setting [6]).
